Test results: paper PMC11939470, “The Cyclic Antimicrobial Peptide C-LR18 Has Enhanced Antibacterial Activity, Improved Stability, and a Longer Half-Life Compared to the Original Peptide” (Antibiotics, 2025)
Where a SMILES comes first, the peptide text is derived from it. Bridges are numbered along the chain shown (N, C = ends).

Assays:
[1] = system: E. coli Y1; assay: Therapeutic experiment, survival of E. coli-infected mice; format: in vivo, KM mice; conditions: within 72 h, 10 mice per group
Method: The mice (female, 18–21 g) were randomly divided into 6 groups, with PBS dilution as the control group. A total of 1–5 groups were injected intraperitoneally with 0.5 mL of E. coli solution containing […] CFU/mL, respectively. After inoculation, the mice were observed continuously for 5 days, and the mortality rate was recorded. The minimum dose (LD 100) at which all mice die within 5 days was used as the optimal dose for the bacterial attack in this experiment.
In order to further evaluate the therapeutic potential of antimicrobial peptide C-LR18, a mouse model infected with E. coli was constructed in this study. The Km mice (female, 18–21 g) were maintained at constant room temperature [(25 ± 2) °C] with free access to food and water for 48 h. […] A total of 0.5 mL of E. coli Y1 suspension (10^9 CFU/m L) was intraperitoneally injected into each group of mice. One hour after challenge, different doses of C-LR18 (2.5 mg/kg, 5 mg/kg, and 7.5 mg/kg) and polymyxin B (5 mg/kg) were intraperitoneally injected into mice. The group injected with the same dose of physiological water was the control group.

[2] = system: E. coli Y1; assay: Bacterial load in liver and spleen of mice; format: in vivo; conditions: 7.5 mg/kg tail vein 1 h after ip E. coli Y1, one mouse every 24 h
Method: One hour after the mice were intraperitoneally injected with 0.5 mL of E. coli Y1 suspension (10^9 CFU/mL), C-LR18 was injected into the mice at a dose of 7.5 mg/kg through the tail vein. The normal saline group was used as negative control, and the polymyxin B group (1 mg/kg) was used as positive control. After that, one mouse was taken every 24 h, sacrificed via cervical dislocation, and the liver and spleen were removed, weighed, and added to PBS buffer for grinding at 3000 r/min for 2 min. The abrasive solution was diluted with sterile PBS (1:10,000), and 0.1 mL diluent was evenly coated in solid MH medium and cultured at 37 °C overnight. Colony counting was performed on the samples, and the bacterial colonization amount in liver and spleen was calculated.

[3] = system: rabbit red blood cells; assay: Hemolysis activity determination; format: cell-based; conditions: 2% rabbit red blood cells in PBS pH 7.4, 37 °C 1 h, OD 570 nm, repeated three times
Method: Briefly, the collected rabbit red blood cells [purchased from Oumarsi (Shanghai, China) Biotechnology Co., Ltd.] were washed three times with PBS (pH 7.4) and diluted to 2% (v/v). A total of 100 µL of rabbit red blood cells suspension were mixed with 100 µL of PBS (pH 7.4) containing different concentrations of peptides (1–256 µM) in a 96-well plate. The positive control was a mixture of 100 µL of red blood cell suspension and 100 µL of 0.2% TritonX-100 solution, and the negative control was a mixture of 100 µL of red blood cell suspension and 100 µL of PBS solution. The mixtures were incubated at 37 °C for 1 h, then centrifuged at 1000× g for 10 min. The OD value at 570 nm of the supernatant was measured using a microplate reader (TECAN GENios F129004, Tecan, Salzburg, Austria). The hemolytic index was calculated according to the following formula:Hemolytic index % = (OD peptide − ODPBS)/(ODT ritonX-100 − ODPBS) × 100%(2)
The concentration of the antimicrobial peptide causing 10% erythrocyte hemolysis was defined as the minimum hemolytic concentration of the antimicrobial peptide on rabbit red blood cells. The experiment was repeated three times.

[4] = Half-life and pharmacokinetics in SD rats after caudal vein administration (HPLC); format: in vivo
Method: Half-life of peptides in SD rats was determined via HPLC according to the method described in [31]. The SD rats were maintained at constant room temperature [(25 ± 2) °C] with free access to food and water for 48 h. Each SD rat was weighed to an accuracy of 0.10 g, numbered, and grouped randomly, with 6 rats in each group. LR18 and C-LR18 were injected into SD rats via tail vein at a dose of 5 mg/kg body weight. A total of 200 μL of blood was collected from the orbital venous plexus at different time points of 0, 0.5, 0.8, 1.0, 1.5, 2.5, 3.5, 5, 10, 30, and 60 min, and placed into a centrifuge tube containing 0.5% heparin sodium. After centrifugation at 3000 r/min for 15 min, the supernatant was absorbed into a new centrifuge tube, and then acetonitrile containing 0.1% TFA was added at 1/1 volume. Vortexing for 30 s, the samples were centrifuged at 14,000 r/min for 20 min, the supernatant was aspirated and sterilized using a 0.22 μm sterilization filter, and 30 μL of the sample was used for HPLC determination. The pharmacokinetic parameters were calculated using Phoenix Winnonlin 7.0 software and analyzed with non-atrioventricular model. Drug–time curves were plotted using Graphpad Prim, and Mean ± SD was used to interpolate each point during drug–time curve fitting.

[5] = system: E. coli ATCC25922; assay: Membrane permeability assay (propidium iodide uptake, flow cytometry); format: cell-based; conditions: 1 × MIC (4 μM), 30 min 37 °C, 1 × 10^6 CFU/mL, PBS control 3.25%
Method: The effect of C-LR18 on bacterial membrane permeability was measured using the propidium iodide (PI) uptake assay described in [22]. E. coli ATCC25922 in logarithmic growth phase were adjusted to 1 × 10^6 CFU/mL. C-LR18 was added with the final concentration of 4 μM. The mixtures were incubated for 30 min at 37 °C. […] After eliminating unbound dye by washing twice with PBS, the bacterial cells were detected using a flow cytometer (Ex = 535 nm/Em = 615 nm). The results were analyzed using FlowJo 6.2.1 and GraphPad Prism 5 software.

[6] = system: E. coli Y1; assay: Bacterial colony number in mouse abdominal cavity; format: in vivo; conditions: 24 h after treatment, three mice, control group 1 × 10^9 CFU/mL
Method: One hour after the mice were intraperitoneally injected with 0.5 mL of E. coli Y1 suspension (10^9 CFU/mL), different doses of C-LR18 (2.5 mg/kg, 5 mg/kg, and 7.5 mg/kg) were injected into the mice through the tail vein, respectively. After 24 h, 2 mL sterile saline was injected into the abdominal cavity of the mice, and the mice were killed via cervical dislocation. The peritoneal cavity of mice was opened, the peritoneal fluid was absorbed, and the peritoneal fluid was diluted with sterilized MH medium in a double ratio. After coating the plate, the peritoneal fluid was cultured at 37 °C for 16–20 h, and the colony count was performed. Three mice were taken from each group.

[7] = system: KM mice; assay: Acute toxicity (LD50) in mice, tail vein; format: in vivo; conditions: for Number of Animal Deaths (r) / Survival Rate (q): 10 mice
Method: The health status of mice was observed, and the mortality data of 5 groups of mice were recorded. The LD50 and 95% confidence limit of C-LR18 for mice were calculated according to the following formula:LD50 = log − 1[Xm − i(ΣP − 0.5)](3) (4) SX50=i∑pq/n 95% Confidence limits of LD50 = log − 1(log − 1LD50 ± 1.96SX50)(5)
Xm: dose pair value of maximum dose group, i: the difference between the dose pairs of two adjacent groups, P: animal mortality in each group, ΣP: the sum of the mortality of each group of animals, n: number of animals per group, q: survival rate per dose group, […].

In the case of `CC(C)C[C@@H]1NC(=O)[C@H](CCCNC(=N)N)NC(=O)[C@H](CCCNC(=N)N)NC(=O)[C@H](CC(C)C)NC(=O)[C@H](CC(C)C)NC(=O)[C@H](CCCNC(=N)N)NC(=O)[C@H](CC(C)C)NC(=O)[C@@H]2CCCN2C(=O)[C@H](CCCNC(=N)N)NC(=O)[C@H](CCCNC(=N)N)NC(=O)[C@@H]2CCCN2C(=O)[C@H](CC(C)C)NC(=O)[C@H](CCCNC(=N)N)NC(=O)[C@H](CC(C)C)NC(=O)[C@H](CC(C)C)NC(=O)[C@H](CCCNC(=N)N)NC(=O)[C@H](CCCNC(=N)N)NC(=O)[C@H](CC(C)C)NC(=O)[C@@H](N)CSSC[C@@H](C(=O)O)NC1=O` [C-LR18] (H-CLRRLLRLPRRPLRLLRRLC-OH; disulfide 1-20; N-terminus and C-terminus assumed), the “survival rate of mice” value ([1]; 2.5 mg/kg ip 1 h after ip 0.5 mL E. coli Y1 10^9 CFU/mL) is reported as 20%, the “survival rate of mice” value ([1]; 5 mg/kg ip 1 h after ip 0.5 mL E. coli Y1 10^9 CFU/mL) is reported as 40% and the “survival rate of mice” value ([1]; 7.5 mg/kg ip 1 h after ip 0.5 mL E. coli Y1 10^9 CFU/mL) is reported as 60%. For the same compound, the “bacterial colonization in liver and spleen” value [2] was “significantly less than that in the negative control group”, the “MHC10 (lowest concentration inducing 10% hemolysis)” value [3] was 128 µM and the “half-life in rats relative to LR18” value ([4]; SD rats iv) was 4.66 times. For the same compound, the “prolongation of half-life in rats versus LR18” value ([4]; SD rats iv) was 10 min, the Cmax ([4]; SD rats, tail vein, 5 mg/kg, HPLC, n = 3) was 254.23 ± 6.30 µg/mL and the AUC0-t ([4]; SD rats, tail vein, 5 mg/kg, non-compartmental, HPLC, n = 3 (method: 6 rats per group)) was 3376.13 ± 37.72 µg·min/mL. For the same compound, the MRT ([4]; rat, plasma, iv, SD rats, tail vein, 5 mg/kg, HPLC, n = 3, read-out: MRT0-t (converted)) was 13.5 min, the half-life ([4]; rat, plasma, iv, SD rats, tail vein, 5 mg/kg, HPLC, n = 3, read-out: T1/2β (terminal elimination half-life)) was 12.7 ± 0.79 min and the “PI fluorescence of treated cells (PI-A+)” value [5] was 60.6%. The “number of colonies in mouse abdominal cavity” value (“number of colonies” below) ([6]; 2.5 mg/kg) was 10^7 CFU/mL, the “number of colonies” value ([6]; 5.0 mg/kg) was 10^6 CFU/mL and the “number of colonies” value ([6]; 7.5 mg/kg) was 10^4 CFU/mL. For the same compound, the “Number of Animal Deaths (r)” value ([7]; 36 mg/kg tail vein) was 0, the “Survival Rate (q)” value ([7]; 36 mg/kg tail vein) was 1 and the “Number of Animal Deaths (r)” value ([7]; 44 mg/kg tail vein) was 2. The “Survival Rate (q)” value ([7]; 44 mg/kg tail vein) was 0.8, the “Number of Animal Deaths (r)” value ([7]; 53 mg/kg tail vein) was 5 and the “Survival Rate (q)” value ([7]; 53 mg/kg tail vein) was 0.5. For the same compound, the “Number of Animal Deaths (r)” value ([7]; 64 mg/kg tail vein) was 7, the “Survival Rate (q)” value ([7]; 64 mg/kg tail vein) was 0.3 and the “Number of Animal Deaths (r)” value ([7]; 77 mg/kg tail vein) was 10. The “Survival Rate (q)” value ([7]; 77 mg/kg tail vein) was 0 and the “95% confidence limit of LD50” value ([7]; Kunming mice, tail vein) was 28.0 to 50.1 mg/kg.
